Source: patent US20060194748A1, “Methods for treating disorders induced by H. pylori infections and pharmaceutical compositions for the same” (National University Corporation Nagoya University, priority 2005, published 2006)
Values after ≈ are worked out from the molar mass of the structure shown. Like-named read-outs stand apart in the source and are kept apart here.

Tests used:
[1] = test system: H. pylori 26695; assay: Time-kill curve test
Method: Glycine in BB was added to the cultures at the start of incubation. The mean values for the log number of CFU per milliliter versus time for H. pylori were tested with different concentrations of glycine. At 12-h intervals after drug addition, aliquots of each culture were spread onto BB agar for determination of the number of CFU.
The time course of the antibacterial effects was determined with strain 26695 (18). Briefly, bacteria cultured for 4 days on BB agar were diluted with fresh BB to ˜10^8 CFU/ml. […] At 0, 12, 24, 36, and 48 h, samples were removed and 0.1 ml of 10-fold serial dilution was plated onto BB agar. […] At 0, 6, 12, 18, and 24 h, samples were removed and 0.1 ml of 10-fold serial dilutions was plated onto BB agar. The number of colonies growing on the plates after 4 days of incubation was counted in both studies.

[2] = test system: H. pylori strain 26695; assay: MBC of AMX with glycine by liquid culture method
Method: H. pylori was treated with the indicated concentrations of the test compounds for 3 days. AMX was used at concentrations of 0 to 75 ng/ml. […] The mean value for the log number of CFU per milliliter at each concentration was plotted.
By a second method, the minimal bactericidal concentrations (MBCs), defined as the lowest concentration of each antibiotic that completely killed the isolates, were determined by using liquid cultures with antimicrobial agents by a modification of the method of Sjöström et al. (31). […] After 3 days of incubation of H. pylori at 37° C. under microaerophilic conditions, aliquots from each culture were applied to BB agar for determination of the MBC. After 4 days of incubation, the number of CFU was counted.

[3] = test system: 31 H. pylori strains, including CLR-resistant strains
[4] = test system: Lactococcus lactis subspecies; conditions: cited from earlier work
[5] = test system: CLR-susceptible and CLR-resistant H. pylori strains
Method: H. pylori strains were treated with the indicated concentrations of test compound for 3 days. The mean value for the log number of CFU per milliliter of all CLR-susceptible and all CLR-resistant H. pylori strains at each concentration was plotted. Glycine was used at concentrations of 0, 0.5, 1, 1.5, 2.0, and 2.5 mg/ml. […] Symbols: ▪, CLR-susceptible strains; ▴, CLR-resistant strains.
(§1) Briefly, all isolates were incubated for 4 days on BB agar. After this incubation, inocula were prepared by suspending growth from the BB agar plates with antimicrobial agents in saline to achieve a suspension equivalent to a 2.0 McFarland standard. Final inocula of 10^6 CFU/spot were applied to M-H agar or BB. All plates were incubated for 3 days at 35° C. in a microaerophilic atmosphere, and the number of CFU was counted. In the liquid culture study, aliquots from each culture were applied to BB agar after 3 days of incubation of H. pylori at 37° C. under microaerophilic conditions. After 4 days of incubation, the number of CFU was counted. The mean value for the log number of CFU per milliliter was plotted.

[6] = test system: H. pylori strain 26695
Method: The PAE on bacteria was measured by a modification of the method of Ibrahim et al. (19). After 4 days of growth of strain 26695 on BB agar, the bacteria were harvested, placed into PBS, and diluted with BB to ˜10^8 CFU/ml; and a final inoculum of 10^6 CFU/ml was applied to BB agar. […] After incubation for 8 h, the antibiotics were removed by dilution 1:10^3 into fresh BB and the cultures were incubated for 24 h. Samples were collected for viable counts (numbers of CFU per milliliter) every 4 h, plated onto BB agar plates, and incubated for 4 days. Viability curves were then determined. The control culture, which was not exposed to any antimicrobial agents, was treated similarly.
For quantification of the PAE, viable counts were determined before and after antibiotic exposure.

[7] = test system: 31 H. pylori strains, including CLR-resistant strains; assay: microbe, parasite or virus in culture; conditions: Helicobacter pylori
[8] = test system: H. pylori strains; assay: MIC of CLR for donor strains and CLR-resistant isogenic mutants (agar/disk dilution); type: cell-based, Helicobacter pylori
Method: The susceptibilities of the CLR-resistant strains were determined by the agar dilution method (27). […] The MIC of glycine was defined as the lowest concentration that inhibited the visible growth of isolates completely by the agar dilution method on Mueller-Hinton agar (Becton Dickinson and Company, Paramus, N.J.) plates supplemented with 5% aged sheep blood (Nippon Bio-Test Laboratories Inc., Tokyo, Japan) (M-H agar) (27).
as §1
CLR-resistant isogenic mutants with a single point mutation in domain V of the 23S rRNA gene were created from strain 26695 by natural transformation (3, 29). Transformants were isolated, and the MICs of CLR were determined by the disk dilution method.

CC1(C)S[C@@H]2[C@H](NC(=O)[C@H](N)c3ccc(O)cc3)C(=O)N2[C@H]1C(=O)O [AMX, amoxicillin]
viable cells at 24 h ([1]; AMX alone at 75 ng/ml): no viable cells
MBC of AMX with glycine relative to that of AMX alone [2]: 1/10
MBC ([2]; Helicobacter pylori, 26695, read-out: MBC of AMX with glycine, with glycine at 0.5 mg/ml): 0.025 µg/mL
MBC ([2]; Helicobacter pylori, 26695, read-out: MBC of AMX with glycine, with glycine at 1 mg/ml): 0.01 µg/mL
MBC ([2]; Helicobacter pylori, 26695, read-out: MBC of AMX, with glycine at 0 mg/ml (AMX alone)): 0.075 µg/mL

NCC(=O)O [glycine, Glycine]
MIC of glycine [3]: the same as the MIC for strain 26695
difference in glycine MIC for CLR-susceptible and -resistant strains [3]: no difference
glycine concentration above which no colonies were detected in M-H agar ([3]; all strains tested): more than 2.5 mg/ml
glycine content of medium above which growth failed [4]: more than 2%
difference in suppression of growth between CLR-susceptible and -resistant strains ([5]; including isogenic mutant strains, FIG. 1): no difference
80% Inh. % ([5]; see FIG. 1): 0.05 mg/mL
time of significant decrease in number of CFU (P<0.01) ([1]; glycine alone, all concentrations): 48 h
earliest time of significant decrease in number of CFU (P<0.01) ([1]; glycine at 5 mg/ml): 24 h
earliest time of significant decrease in number of CFU (P<0.01) ([1]; glycine at 10 mg/ml): 12 h
nature of the effect of glycine ([1]; time-kill, 0 to 10 mg/ml): bactericidal
PAE against H. pylori [6]: no PAE
MIC50 [7]: 1500 µg/mL (≈ 20 mM)
MIC90 ([7]; 31 strains): 2500 µg/mL (≈ 33.3 mM)
MIC ([7]; ATCC43504, read-out: MIC of glycine): 2500 µg/mL
MIC ([7]; read-out: MIC of glycine): 2500 µg/mL
MIC ([7]; read-out: glycine MICs for the 31 strains): 1000 to 2500 µg/mL (≈ 13.3 to 33.3 mM)

CC[C@H]1OC(=O)[C@H](C)[C@@H](O[C@H]2C[C@@](C)(OC)[C@@H](O)[C@H](C)O2)[C@H](C)[C@@H](O[C@@H]2O[C@H](C)C[C@H](N(C)C)[C@H]2O)[C@](C)(OC)C[C@@H](C)C(=O)[C@H](C)[C@@H](O)[C@]1(C)O [CLR, clarithromycin]
MIC of CLR ([8]; isogenic mutant strain 26695:535): 4 µg/mL
MIC of CLR ([8]; isogenic mutant strain 26695:628): 32 µg/mL
MIC of CLR ([8]; strain 535 (donor, A-to-G at position 2144)): 4 µg/mL
MIC of CLR ([8]; strain 628 (donor, A-to-G at position 2143)): 32 µg/mL
